Data as given in article PMC7785020, “A unique hormonal recognition feature of the human glucagon-like peptide-2 receptor” (Cell Research, 2020).
Substitutions are numbered along the chain they refer to. Where two headings read alike, the source gives them in different places. No end group written: not given here.

How the values were obtained:
GLP-2R W249^ECL1A = target: T1, GLP-2R W249^ECL1A (Homo sapiens, UniProt O95838, W249A); assay: cAMP accumulation, W249^ECL1A; format: cell-based; set-up: WT (1–553); expressed in transfected cells; HEK 293T (cAMP); details: HEK 293T, 30 min, RT, mean ± SEM, n ≥ 3 in duplicate; for Emax: HEK-293T, read-out: cAMP Emax (% WT); for EC50: read-out: cAMP pEC50 (converted)
T1 sequence (O95838 1-553 W249A): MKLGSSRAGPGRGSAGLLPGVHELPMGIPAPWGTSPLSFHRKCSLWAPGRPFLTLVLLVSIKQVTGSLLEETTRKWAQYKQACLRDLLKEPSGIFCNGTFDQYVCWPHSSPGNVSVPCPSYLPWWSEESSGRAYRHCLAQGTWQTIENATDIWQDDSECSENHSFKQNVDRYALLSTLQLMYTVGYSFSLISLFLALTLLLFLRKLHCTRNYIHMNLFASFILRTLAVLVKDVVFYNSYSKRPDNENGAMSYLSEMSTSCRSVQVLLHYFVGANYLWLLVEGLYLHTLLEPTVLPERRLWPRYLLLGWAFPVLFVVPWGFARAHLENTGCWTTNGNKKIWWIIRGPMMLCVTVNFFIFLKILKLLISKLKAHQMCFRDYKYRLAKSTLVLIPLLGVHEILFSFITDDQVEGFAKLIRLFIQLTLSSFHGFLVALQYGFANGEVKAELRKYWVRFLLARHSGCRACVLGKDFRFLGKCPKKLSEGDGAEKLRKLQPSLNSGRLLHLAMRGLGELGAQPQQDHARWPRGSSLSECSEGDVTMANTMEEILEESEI
Method: They were seeded onto 6-well cell culture plates and transiently transfected with different GLP-2R constructs using Lipofectamine 2000 transfection reagent (Invitrogen, Carlsbad, CA, USA). After 24 h, the transfected cells were seeded onto 384-well microtiter plates (3000 cells per well) in HBSS supplemented with 5 mM HEPES, 0.1% (w/v) bovine serum albumin (BSA) and 0.5 mM 3-isobutyl-1- methylxanthine, and stimulated with increasing concentrations of GLP-2 for 30 min at RT. Eu and Ulight were diluted by cAMP detection buffer and added to the plates separately to terminate the reaction. Plates were incubated at RT for 60 min before measuring the fluorescence intensity at 620 nm and […] by an EnVision multilabel plate reader (PerkinElmer, Boston, USA).

GLP-2R N247^ECL1A = target: T2, GLP-2R N247^ECL1A (Homo sapiens, UniProt O95838, N247A); assay: radioligand competition binding, N247^ECL1A; set-up: WT (1–553); expressed in transfected cells; details: COS-7, N247^ECL1A; [^125I]GLP-2(1–33, M10Y) 10–15 pM, 4 h, 4 °C; mean ± SEM, n ≥ 3 in duplicate
T2 sequence (O95838 1-553 N247A): T1 sequence (O95838 1-553 W249A) with N247A, A249W
Method: (§1) A stepwise oxidation reaction was performed by addition of 6 aliquots of 5 µL ChloramineT (30 µL/mL) with a 1-min interval during constant stirring. The reaction was terminated by the addition of 400 µL phase A (0.1% trifluoracetic acid) before being fractionated into 1 mL volume by reverse-phase high-performance liquid chromatography (RP-HPLC, Waters 600 SimiPrep system) on a C18 column. The iodinated protein was […] by increasing concentrations of phase B (Acetonitrile + 0.1% TFA) and tested for competitive binding ability.
(§2) One day before transfection, the COS-7 cells were seeded in 75 cm^2 culture flasks (3 million cells/flask) in DMEM, containing 3.9 g/L NaHCO3 and supplemented with 10% FBS, 1% L-glutamine, 180 units/mL penicillin and 45 µg/mL streptomycin. After an overnight culture at 37 °C, 10% CO2 and 95% air humidity, the cells were transiently transfected with different GLP-2R constructs or pcDNA3.1 vector as previously described.[52] Following 24-h incubation, the cells were transferred to Costa® microtiter plates (150,000 cells/well, PerkinElmer) to achieve a 5%–10% specific binding. […] The cells were then washed twice in binding buffer (4 °C), lysed and counted for radioactivity using a Wallac Gamma Counter (PerkinElmer).

GLP-2R W340^5.36A = target: T3, GLP-2R W340^5.36A (Homo sapiens, UniProt O95838, W340A); assay: radioligand competition binding, W340^5.36A; set-up: WT (1–553); expressed in transfected cells; details: COS-7, W340^5.36A; [^125I]GLP-2(1–33, M10Y) 10–15 pM, 4 h, 4 °C; mean ± SEM, n ≥ 3 in duplicate
T3 sequence (O95838 1-553 W340A): T1 sequence (O95838 1-553 W249A) with A249W, W340A
Method: as §1, §2

CC[C@H](C)[C@H](NC(=O)[C@H](Cc1ccccc1)NC(=O)[C@H](CC(=O)O)NC(=O)[C@H](CCCNC(=N)N)NC(=O)[C@H](C)NC(=O)[C@H](C)NC(=O)[C@H](CC(C)C)NC(=O)[C@H](CC(N)=O)NC(=O)[C@H](CC(=O)O)NC(=O)[C@H](CC(C)C)NC(=O)[C@@H](NC(=O)[C@@H](NC(=O)[C@H](CC(N)=O)NC(=O)[C@H](CCSC)NC(=O)[C@H](CCC(=O)O)NC(=O)[C@H](CC(=O)O)NC(=O)[C@H](CO)NC(=O)[C@H](Cc1ccccc1)NC(=O)[C@H](CO)NC(=O)CNC(=O)[C@H](CC(=O)O)NC(=O)[C@H](C)NC(=O)[C@@H](N)Cc1c[nH]cn1)[C@@H](C)O)[C@@H](C)CC)C(=O)N[C@@H](CC(N)=O)C(=O)N[C@@H](Cc1c[nH]c2ccccc12)C(=O)N[C@@H](CC(C)C)C(=O)N[C@H](C(=O)N[C@@H](CCC(N)=O)C(=O)N[C@H](C(=O)N[C@@H](CCCCN)C(=O)N[C@H](C(=O)N[C@H](C(=O)N[C@@H](CC(=O)O)C(=O)O)[C@@H](C)O)[C@@H](C)CC)[C@@H](C)O)[C@@H](C)CC [Human GLP-2 (1–33)]
Emax (GLP-2R W249^ECL1A; Table S3, W249A): 128 ± 162%
Emax (GLP-2R W249^ECL1A; Table S5, W249A): 113 ± 4.1%
% Binding of WT (GLP-2R N247^ECL1A): 130.7 ± 4.5 %
% Binding of WT (GLP-2R W340^5.36A): 7.3 ± 0.6 %

CC[C@H](C)[C@H](NC(=O)[C@H](Cc1ccccc1)NC(=O)[C@H](CC(=O)O)NC(=O)[C@H](CCCNC(=N)N)NC(=O)[C@H](C)NC(=O)[C@H](C)NC(=O)[C@H](CC(C)C)NC(=O)[C@H](CC(N)=O)NC(=O)[C@H](CC(=O)O)NC(=O)[C@H](CC(C)C)NC(=O)[C@@H](NC(=O)[C@@H](NC(=O)[C@H](CC(N)=O)NC(=O)[C@H](CCSC)NC(=O)[C@H](CCC(=O)O)NC(=O)[C@H](CC(=O)O)NC(=O)[C@H](CO)NC(=O)[C@H](Cc1ccccc1)NC(=O)[C@H](CO)NC(=O)CNC(=O)[C@H](CC(=O)O)NC(=O)CNC(=O)[C@@H](N)Cc1c[nH]cn1)[C@@H](C)O)[C@@H](C)CC)C(=O)N[C@@H](CC(N)=O)C(=O)N[C@@H](Cc1c[nH]c2ccccc12)C(=O)N[C@@H](CC(C)C)C(=O)N[C@H](C(=O)N[C@@H](CCC(N)=O)C(=O)N[C@H](C(=O)N[C@@H](CCCCN)C(=O)N[C@H](C(=O)N[C@H](C(=O)N[C@@H](CC(=O)O)C(=O)O)[C@@H](C)O)[C@@H](C)CC)[C@@H](C)O)[C@@H](C)CC [Teduglutide]
% Binding of WT (GLP-2R N247^ECL1A): 135.2 ± 4.4 %
% Binding of WT (GLP-2R W340^5.36A): 8.6 ± 1.8 %

HADGSFSDEMNTILDNLAAKEFIAWLVKGRG [Chimeric GLP-1/GLP-2 (20-33)]
EC50 (GLP-2R W249^ECL1A; Table S5, W249A): 6.31 µM

HAEGTFSDEMNTILDNLAARDFINWLIQTKITD [Chimeric GLP-1/GLP-2 (1-6)]
EC50 (GLP-2R W249^ECL1A; Table S5, W249A): 1.26 µM
